Source: US5180711A, “Combined treatment with GnRH antagonist and GnRH to control gonadotropin levels in mammals” (Applied Research Systems ARS Holding N.V., priority 1990, dated 1993)
Where a SMILES comes first, the peptide text is derived from it. [ ]: non-standard residue; d: D form. The star is where a group is joined. dPhe(4-Cl) = N[C@H](Cc1ccc(Cl)cc1)C(=O)O; d2Nal = N[C@H](Cc1ccc2ccccc2c1)C(=O)O; Lys(iPr) = CC(C)NCCCC[C@H](N)C(=O)O; d3Pal = N[C@H](Cc1cccnc1)C(=O)O; Nicotinoyl = O=C(c1cccnc1)*

How the values were obtained:
[1] = Antide concentrations in daily blood samples (Example 2); format: in vivo, cynomolgus monkeys; settings: regimen A: four daily injections of 10 mg/kg sc; test period >40 days
Method: (§1) Normally cycling cynomolgus monkeys were studied in one of two regimens. Regimen A comprised a series of initial large loading doses of Antide (10 mg/kg, sc), with no further Antide administration. […] In each regimen GnRH replacement was initiated 4 days after the first Antide injection at a rate of 5 μg/pulse, with one 1 min pulse/hour. The amplitude was subsequently raised to 10 μg/pulse after approximately 21 days. Daily blood samples were drawn for later determination of estradiol, progesterone and Antide concentrations.

[2] = tested on: ovulation; estradiol and progesterone concentrations; experiment: Ovulation induction by pulsatile GnRH replacement during Antide suppression of endogenous cycles (Example 2); format: in vivo, cynomolgus monkeys
Method: A second experiment was performed to establish that pulsatile GnRH replacement therapy would induce ovulation in the face of antagonist-induced suppression of endogenous cycles.
as §1

[3] = tested on: tonic gonadotropin (FSH/LH) levels; settings: ovariectomized monkeys treated with Antide; cited from earlier work
[4] = tested on: endogenous gonadotropin secretion (LH, FSH); experiment: Inhibition of endogenous gonadotropin secretion by Antide and response to pulsatile GnRH replacement in ovariectomized monkeys (Example 1); format: in vivo, cynomolgus monkeys; settings: Antide-suppressed monkeys; GnRH 5 μg/pulse, 1 pulse/hour, from day 17; day after initiation
Method: Three long-term ovariectomized cynomolgus monkeys fitted with indwelling jugular vein canulae were utilized for this study. Daily blood samples were drawn under ketamine-induced anesthesia (10 mg/kg, I.M.), for 90 days. On study days 11-16 Antide (3 mg/kg, in propylene/glycol:water, 1:1) was administered via subcutaneous injection. GnRH replacement therapy (5 μg/pulse, 1 pulse/hour given over 1 min, via a Pulsamat infusion pump) was initiated on day 17 and continued for one week then withheld for one week, then reinitiated for one week in a 7 day on, 7 day off regimen for a total of four exposures.

Compound | concentration of Antide, always remaining above, throughout test period [1] | E2 response, ovulation and luteal P4 ([2]; regimen A, GnRH restarted at 10 μg/pulse) | E2 response to initial pulsatile GnRH replacement ([2]; regimen B, GnRH 5 μg/pulse) | E2 response, ovulation and luteal P4 ([2]; regimen B, GnRH increased to 10 μg/pulse) | gonadotropin response to a large i.v. bolus of GnRH [3] | gonadotropin concentrations during GnRH replacement therapy [4]
CC(=O)N[C@H](Cc1ccc2ccccc2c1)C(=O)N[C@H](Cc1ccc(Cl)cc1)C(=O)N[C@H](Cc1cccnc1)C(=O)N[C@@H](CO)C(=O)N[C@@H](CCCCNC(=O)c1cccnc1)C(=O)N[C@H](CCCCNC(=O)c1cccnc1)C(=O)N[C@@H](CC(C)C)C(=O)N[C@@H](CCCCNC(C)C)C(=O)N1CCC[C@H]1C(=O)N[C@H](C)C(N)=O [Antide, N--Ac--D--2--Nal--D--pClPhe--D--3---Pal--Ser--NicLys--D--NicLys--Leu--ILys--Pro--D--Ala--NH2] (Ac-[d2Nal][dPhe(4-Cl)][d3Pal]SK(Nicotinoyl)[dK](Nicotinoyl)L[Lys(iPr)]P[dA]-NH2) | above 15 ng/ml |  |  |  |  | 
gonadotropin releasing hormone (QHWSYGLRPG; Gonadoliberin-1; UniProt P01148 24-33, looked up) [GnRH] |  | rapid and sustained elevation of E2 concentrations culminating in ovulation and normal luteal phase P4 (progesterone) concentrations | elevations of E2 to those characteristic of the late follicular phase | rapid rise in E2 concentrations to normal preovulatory levels culminating in ovulation with subsequent normal luteal P4 production | transient increase in gonadotropin levels which subsequently fell back to the inhibited state | greater than 100 ng/ml
